# Measured values taken from patent publication US5254582A, “Antitumor compositions and methods” (Eli Lilly and Company, priority 1992, dated 1993).
# Legend:
# [1] = tested on: VRC5 human colon adenocarcinoma xenograft; experiment: percent inhibition of tumor growth and mortality in mice bearing VRC5 human colon adenocarcinoma xenografts, oral; assay type: in vivo; conditions: daily for 10 days
# Excerpt: (§1) Two of the tumor models used for showing the antineoplastic activity of the sulfonylurea of this invention were the human colon xenografts, HXGC3 and VRC5. J. A. Houghton and D. M. Taylor, British Journal of Cancer, 37:213-223 (1978). These tumors were obtained from St. Jude's Children's Research Hospital and have been widely used as human tumor models.
# (§2) First passage tumors were stored in liquid nitrogen, using standard techniques. The transplanted tumor was reestablished from the Tumor Bank every six months or as needed. The tumor was maintained by serial passage twice weekly in nude mice.
# (§3) In the procedures utilized here, the tumor was removed from passage animals and minced into 1- to 3-mm cubic fragments using sterile techniques. Tumor pieces were checked for sterility using both Antibiotic medium 1 and Brain Heart Infusion (Difco, Detroit, Mi.). The tumor pieces were implanted into the recipient CDl Nu/Nu mice subcutaneously in an axillary site by trochar.
# (§4) Drug therapy on the appropriate schedule was initiated seven days after tumor implantation. The compound being tested was mixed with 2.5% Emulphor EL620 from GAF Corporation (1:40 dilution in 0.9% saline). The total dosage volume for each administration was 0.5 mL. All animals were weighed at the beginning and end of administration of the subject compounds. Food and water were provided ad libitum.
# (§5) Each control group and each dosage level of the treated groups consisted of 10 mice selected at random from the pool of implanted animals. The formulations were administered orally by gavage with the use of an 18-gauge needle. Compounds were dosed daily for 10 days.
# (§6) The tumor was measured five days after treatment ended with two dimensional measurements (width and length) of the tumor taken using digital electronic calipers interfaced to a microcomputer. J. F. Worzalla, et al., Investigational New Drugs, 8:241-251 (1990). Tumor weights were calculated from these measurements using the following formula:
# (§7) Tumor weight (mg)=[tumor length (mm)×[tumor width (mm)]^2 ]
# (§8) At least one control group of an equal number of mice was treated with the same volume of 2.5% Emulphor only. The percent inhibition is determined by subtracting the ratio of the mean tumor size of the test group relative to the control group from one and multiplying the result by 100.
# (§9) The results of several experiments in mice bearing the HXGC3 and VRC5 human colon adenocarcinomas when the instant compounds were administered orally are provided in Table I. In the Table, column 1 describes the particular human tumor xenograft being studied; column 2 gives the dosage level of the compound of Formula I in milligrams per kilogram of body weight; column 3 describes the percent inhibition of tumor growth; and column 4 tallies the number of mice which died during the course of the experiment relative to the total number of animals in the group.
# [2] = tested on: transplanted human tumors; experiment: activity against transplanted human tumors in mice bearing different xenograft tumors; assay type: in vivo
# Excerpt: as §1
# [3] = toxicological study in male Fischer 344 rats, morphological, hematological and pathological studies; assay type: in vivo, rat (male Fischer 344); conditions: rat, 65 to 1000 mg/kg, oral gavage, daily for 14 days
# Method: For these experiments thirty male Fischer 344 rats were administered varying dosages of a formulation containing the compound of Formula I. These formulations contained between 65 and 1000 mg of the active ingredient per kilogram of body weight of the rat, in combination with a suitable excipient, usually containing 10% acacia. The compounds were administered orally by gavage. The compounds were dosed daily for 14 days. All animals were weighed at the beginning and end of administration of the subject compounds. Food and water were provided ad libitum.
# Upon completion of the testing regimen, morphological and hematological studies were performed.
# [4] = tested on: HXGC3 human colon adenocarcinoma xenograft; experiment: percent inhibition of tumor growth and mortality in mice bearing HXGC3 human colon adenocarcinoma xenografts, oral; assay type: in vivo; conditions: daily for 10 days
# Excerpt: as §1, §2, §3, §4, §5, §6, §7, §8, §9
# [5] = phase I clinical studies; cited from earlier work
# [6] = in vivo; cited from earlier work
# [7] = cited from earlier work
structure (smiles),measurement,setting,value
"O=C(Nc1ccc(Cl)c(Cl)c1)NS(=O)(=O)c1ccc2c(c1)CCO2 [compound of Formula I, N-[[(3,4-dichlorophenyl)amino]carbonyl]-2,3-dihydrobenzofuran-5-sulfonamide]",Percent Inhibition of tumor growth,[1]; 150 mg/kg,97%
same,Toxic/Total (mice which died relative to total number in group),[1]; 150 mg/kg,0/10
same,Percent Inhibition of tumor growth,[1]; 300 mg/kg,98%
same,Toxic/Total (mice which died relative to total number in group),[1]; 300 mg/kg,0/10
same,Percent Inhibition of tumor growth,[1]; 600 mg/kg,100%
same,Toxic/Total (mice which died relative to total number in group),[1]; 600 mg/kg,0/10
same,Percent Inhibition of tumor growth,[1]; 1200 mg/kg,100%
same,Toxic/Total (mice which died relative to total number in group),[1]; 1200 mg/kg,0/10
same,therapeutic index,[2]; in vivo,high therapeutic index
same,activity against transplanted human tumors in vivo,[2]; mice bearing different xenograft tumors,active against transplanted human tumors in vivo
same,hemolytic anemia,[3],absence of hemolytic anemia
same,pathological tissue effects,[3],"effectiveness against tissues with a high mitotic index, including lymph nodes, thymus, gut, testis, and bone marrow"
same,unexpected tissue changes,[3],Unexpected tissue changes were not observed
same,Percent Inhibition of tumor growth,[4]; 150 mg/kg,81%
same,Toxic/Total (mice which died relative to total number in group),[4]; 150 mg/kg,0/10
same,Percent Inhibition of tumor growth,[4]; 300 mg/kg,98%
same,Toxic/Total (mice which died relative to total number in group),[4]; 300 mg/kg,0/10
same,Percent Inhibition of tumor growth,[4]; 600 mg/kg,98%
same,Toxic/Total (mice which died relative to total number in group),[4]; 600 mg/kg,0/10
same,Percent Inhibition of tumor growth,[4]; 1200 mg/kg,99%
same,Toxic/Total (mice which died relative to total number in group),[4]; 1200 mg/kg,0/10
"O=C(Nc1ccc(Cl)cc1)NS(=O)(=O)c1ccc2c(c1)CCC2 [sulofenur, N-(indan-5-sulfonyl)-N'-(4-chlorophenyl)urea]",major metabolites in patients,[5],1-hydroxy- and 1-ketoindansulfonylureas
same,dose-limiting toxicity,[6],hemolytic anemia
same,main urinary metabolites,"[7]; animal trials, urine",mono-hydroxy- and mono-ketoindanyl metabolites
same,adsorption and metabolism,"[7]; mice, rats, dogs, and monkeys",good adsorption and extensive metabolism
